Assay results as given in article PMC4308083, “Cytokine-Induced Loss of Glucocorticoid Function: Effect of Kinase Inhibitors, Long-Acting β2-Adrenoceptor Agonist and Glucocorticoid Receptor Ligands” (PLoS ONE, 2015).

Key:
[1] = system: JUN (c-Jun) phosphorylation; assay: Western blot of TNF-induced JUN phosphorylation in BEAS-2B cells; format: cell-based, human; conditions: 30 min pre-treatment, TNF 10 ng/ml 15 min, western blot (S1 Fig.), read-out: EC50 for decrease of TNF-induced JUN phosphorylation
From the text: (§1) Cells were lysed in 1× Laemmli buffer supplemented with phosphatase inhibitors (Sigma-Aldrich) and 1× complete protease inhibitor cocktail (Roche; Indianapolis, IN), size fractionated on 12% acrylamide gels and subsequently electro-transferred onto Hybond enhanced chemiluminescent membranes (GE Healthcare; Waukesha, WI). Membranes were blocked in 5% milk in tris-buffered saline containing 1% tween 20 and probed with antibodies against phospho-jun proto-oncogene (pJUN; pc-Jun) (9164; Cell Signaling Technology; Danvers, MA), nuclear factor of kappa light polypeptide gene enhancer in B-cells inhibitor, alpha (NFKBIA; IκBα) (sc-371; Santa Cruz Biotechnology; Dallas, TX), phospho-NFKBIA (9246; Cell Signaling Technology), phospho-AKT1 (9271S; Cell Signaling Technology), AKT (9272S; Cell Signaling Technology) and GAPDH (4699–9555(ST); AbD Serotec; Raleigh, NC). After washing, membranes were incubated with horseradish peroxidase-conjugated anti-rabbit (111–035–003; Jackson ImmunoResearch Laboratories Inc; West Grove, PA) or anti-mouse immunoglobulin (115–035–003; Jackson ImmunoResearch Laboratories Inc). Detection was by enhanced chemiluminescence (Pierce ECL Western Blotting Substrate; Thermo Fisher Scientific Inc.; Rockford, IL) and visualization by autoradiography. […]

2×GRE reporter = assay: Modulation of dexamethasone/NR3C1 ligand-induced 2×GRE reporter activation (kinase inhibitors, TNF, formoterol) in BEAS-2B cells; format: cell-based, human; conditions: for 2×GRE reporter induction restored in presence of TNF, % of that induced by dexamethasone: 10 μM inhibitor 30 min pre-treatment, 6 h (Fig. 3A); for 2×GRE reporter induction restored in presence of TNF, % of that induced by dexamethasone / TNF-induced repression reversed to % of the response to dexamethasone / EC50: TNF 10 ng/ml; for Effect on dexamethasone-induced 2×GRE reporter activation (concentration-response): 30 min pre-treatment, 6 h (Fig. 3B, Fig. 4), JNK inhibitor VIII only at 30 μM, PKC inhibitors above 1 μM; for TNF-induced repression reversed to % of the response to dexamethasone: concentration-response, repression ~60% without inhibitor; for TNF-induced repression reversed to % of the response to dexamethasone / EC50: 6 h (Fig. 3B); for EC50: read-out: EC50 for reversal of TNF-induced repression of 2×GRE reporter; for 2×GRE reporter induction restored in presence of TNF, % of that induced by dexamethasone / Effect on dexamethasone-induced 2×GRE reporter activation (concentration-response) / TNF-induced repression reversed to % of the response to dexamethasone / EC50: dexamethasone
Description: BEAS-2B cells stably transfected with a glucocorticoid response element (2×GRE) driven luciferase reporter plasmid, pGL3.neo.TATA.neo [23], were cultured in medium containing 0.25 mg/ml G-418 (Promega, Madison, WI). Cells were grown to confluence in 24 or 48 well plates and incubated overnight in serum-free media prior to experiments. Cells were harvested in reporter lysis buffer and luciferase assays performed according to the manufacturer’s instructions (Firefly Luciferase Assay Kit; Biotium; Hayward, CA) using a 20/20n luminometer (Promega).
Data (n = 7), expressed as a percentage of Dex activation, are plotted as means ± S.E. BEAS-2B 2×GRE cells were pre-treated for 30 min with the indicated concentrations of B. PS or JNK or C. JNK in the presence or absence of 10 μM PS, before addition of 10 ng/ml TNF. After 1 h, 10 μM Dex was added and cells harvested 6 h later for luciferase assay. […] D+T indicates Dex plus TNF treatment.
Data (n = 3–4), expressed as fold activation, are plotted as means ± S.E. D+T indicates Dex plus TNF treatment.
Cells were harvested after 6 h for luciferase assays. Data (n = 7), expressed as fold activation, are plotted as means ± S.E. Lines of best fit were added in panel B. Statistical analyses were performed by ANOVA with a Dunnett’s test comparing each NR3C1 ligand alone versus in the presence of TNF and/or Form. *, P<0.05; **, P<0.01; ***, P<0.001.

[2] = system: CDKN1C, DUSP1, RGS2 and TSC22D3 mRNA in BEAS-2B cells; assay: RT-PCR of glucocorticoid-inducible gene expression in BEAS-2B cells; conditions: for Effect on dexamethasone-induced mRNA expression of CDKN1C, DUSP1, RGS2, TSC22D3 in absence or presence of TNF: JNK inhibitor VIII 3 or 10 μM, PS-1145 10 μM, 6 h (Fig. 7)
Description: Cells were harvested 6 h after Dex addition.
BEAS-2B cells were pre-treated for 30 min with either 10 or 3 μM of the JNK MAPK inhibitor JNK inhibitor VIII (JNK) or 10 μM of the IKK2 inhibitor PS-1145 (PS), before addition of 10 ng/ml tumor necrosis factor-α (TNF).
Cells were harvested 6 h after NR3C1 ligand addition.

[3] = system: NFKBIA (IκBα) phosphorylation; assay: Western blot of TNF-induced NFKBIA phosphorylation in BEAS-2B cells; format: cell-based, human; conditions: 30 min pre-treatment, TNF 2 min, western blot (S1 Fig.), read-out: EC50 for reduction of TNF-induced NFKBIA phosphorylation
From the text: as §1

| SMILES | EC50 [1] [nM] | 2×GRE reporter induction restored in presence of TNF, % of that induced by dexamethasone (2×GRE reporter) [%] | Effect on dexamethasone-induced 2×GRE reporter activation (concentration-response) (2×GRE reporter) | TNF-induced repression reversed to % of the response to dexamethasone (2×GRE reporter) [%] | EC50 (2×GRE reporter) [nM] | Effect on dexamethasone-induced mRNA expression of CDKN1C, DUSP1, RGS2, TSC22D3 in absence or presence of TNF [2] | EC50 [3] [nM] | Additional effect of 10 μM PS-1145 on 2×GRE reporter activity with JNK inhibitor VIII (2×GRE reporter; up to 10 μM JNK inhibitor VIII, TNF, dexamethasone (Fig. 3C)) | Effect on DUSP1 mRNA expression with dexamethasone plus TNF plus formoterol ([2]; 10 μM PS-1145, 6 h (Fig. 7)) |
| --- | --- | --- | --- | --- | --- | --- | --- | --- | --- |
| CCOc1nc(NC(=O)Cc2cc(OC)ccc2OC)cc(N)c1C#N [JNK inhibitor VIII] | ~300 | 77 | modestly enhanced | 87 | 1600 | no significant effect | – | – | – |
| O=C(Nc1cc(Cl)cc2c1[nH]c1cnccc12)c1cccnc1 [PS-1145] | – | 73 | no effect | 76 | 600 | no significant effect | ~1000 | no obvious additional effect | significantly enhanced |
